Assay results as given in patent EP0080284A1, “Derivatives of clavulanic acid, processes for their preparation and their use” (BEECHAM GROUP PLC, priority 1981, dated 1983).

Experiments:
Experiment in all cases: standard MIC test, synergist in combination with amoxycillin
Format in all cases: cell-based
Details in all cases: substance alone, unit assumed
Staph Aureus Russell = system: Staph Aureus Russell
Method: (§1) In a standard MIC test the compound of Example 2 was tested as a synergist in combination with amoxycillin: […]

Klebsiella Aerogenes E70 = system: Klebsiella Aerogenes E70
Method: as §1

E.coli JT39 = system: E.coli JT39
Method: as §1

MIC (Staph Aureus Russell)	MIC (Klebsiella Aerogenes E70)	MIC (E.coli JT39)	Compound
500 µg/mL	500 µg/mL	2000 µg/mL	CC1(C)S[C@@H]2[C@H](NC(=O)[C@H](N)c3ccc(O)cc3)C(=O)N2[C@H]1C(=O)O [Amoxycillin]
62 µg/mL	62 µg/mL	31 µg/mL	COC(OC)OC/C=C1\O[C@@H]2CC(=O)N2[C@H]1C(=O)O [Ex. 2, Lithium 9-O-(dimethoxymethyl)clavulanate]
